test system: not listed separately; experiment: DRUGMATRIX: Sodium/nucleoside co-transporter radioligand binding (ligand: nitrobenzylthioinosine); format: cell membranes, Cavia porcellus, Dunkin-Hartley, Cerebral cortex, Membrane; conditions: Not Active = under 50% inhibition at 10 µM

Row | Compound | IC50 | Ki
1 | c1ccc2[nH]c(-c3cscn3)nc2c1 [THIABENDAZOLE] | Not Active | Not Active
2 | C[C@](N)(Cc1ccc(O)cc1)C(=O)O [METYROSINE] | Not Active | Not Active
3 | CCC[C@@H]1C[C@@H](C(=O)N[C@@H]([C@H]2O[C@H](SC)[C@H](O)[C@@H](O)[C@H]2O)[C@@H](C)O)N(C)C1 [LINCOMYCIN] | Not Active | Not Active
4 | Clc1ccc(C(c2ccccc2Cl)C(Cl)Cl)cc1 (stereo unspecified) [MITOTANE] | Not Active | Not Active

target: T1, Alpha-1A adrenergic receptor (Rattus norvegicus, UniProt P43140); experiment: DRUGMATRIX: Alpha-1A adrenergic receptor radioligand binding (ligand: prazosin); format: cell membranes, Wistar, Submaxillary gland, Membrane; conditions: Not Active = under 50% inhibition at 10 µM
T1 sequence (P43140 whole entry): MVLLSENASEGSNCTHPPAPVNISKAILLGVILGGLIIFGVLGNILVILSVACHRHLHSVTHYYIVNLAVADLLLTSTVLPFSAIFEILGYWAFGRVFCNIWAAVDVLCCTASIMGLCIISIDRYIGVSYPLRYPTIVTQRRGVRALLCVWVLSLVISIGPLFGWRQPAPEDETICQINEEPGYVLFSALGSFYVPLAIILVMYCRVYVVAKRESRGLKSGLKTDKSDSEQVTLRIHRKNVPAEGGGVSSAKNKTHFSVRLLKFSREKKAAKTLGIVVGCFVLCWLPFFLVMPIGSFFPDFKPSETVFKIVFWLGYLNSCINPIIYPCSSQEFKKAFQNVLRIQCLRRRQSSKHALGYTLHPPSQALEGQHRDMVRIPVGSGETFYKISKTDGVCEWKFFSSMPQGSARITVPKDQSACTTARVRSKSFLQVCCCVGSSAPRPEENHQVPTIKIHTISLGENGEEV

Row | Compound | IC50
5 | c1ccc2[nH]c(-c3cscn3)nc2c1 [THIABENDAZOLE] | Not Active
6 | C[C@](N)(Cc1ccc(O)cc1)C(=O)O [METYROSINE] | Not Active
7 | CCC[C@@H]1C[C@@H](C(=O)N[C@@H]([C@H]2O[C@H](SC)[C@H](O)[C@@H](O)[C@H]2O)[C@@H](C)O)N(C)C1 [LINCOMYCIN] | Not Active
8 | Clc1ccc(C(c2ccccc2Cl)C(Cl)Cl)cc1 (stereo unspecified) [MITOTANE] | Not Active

target: T2, Alpha-1D adrenergic receptor (Homo sapiens, UniProt P25100); experiment: not given; format: cell membranes, HEK293, Membrane; conditions: hek293; note: in other assays of this panel Not Active means under 50% inhibition at 10 µM
T2 sequence (P25100 whole entry): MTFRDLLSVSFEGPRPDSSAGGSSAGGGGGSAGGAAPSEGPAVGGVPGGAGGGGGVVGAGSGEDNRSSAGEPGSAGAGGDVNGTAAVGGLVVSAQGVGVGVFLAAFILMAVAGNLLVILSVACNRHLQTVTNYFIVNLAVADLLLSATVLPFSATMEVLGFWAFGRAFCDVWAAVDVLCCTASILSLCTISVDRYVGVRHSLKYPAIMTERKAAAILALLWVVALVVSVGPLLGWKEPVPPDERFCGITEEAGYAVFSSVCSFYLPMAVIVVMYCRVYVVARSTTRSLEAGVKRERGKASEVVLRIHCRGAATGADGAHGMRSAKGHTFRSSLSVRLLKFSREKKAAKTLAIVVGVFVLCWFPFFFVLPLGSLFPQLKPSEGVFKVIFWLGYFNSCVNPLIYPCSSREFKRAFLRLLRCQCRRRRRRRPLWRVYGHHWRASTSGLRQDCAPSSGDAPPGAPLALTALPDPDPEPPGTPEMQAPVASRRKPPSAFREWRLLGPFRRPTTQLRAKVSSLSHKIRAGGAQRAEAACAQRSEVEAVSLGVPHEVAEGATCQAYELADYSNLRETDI

Row | Compound | IC50
9 | c1ccc2[nH]c(-c3cscn3)nc2c1 [THIABENDAZOLE] | Not Active
10 | C[C@](N)(Cc1ccc(O)cc1)C(=O)O [METYROSINE] | Not Active
11 | CCC[C@@H]1C[C@@H](C(=O)N[C@@H]([C@H]2O[C@H](SC)[C@H](O)[C@@H](O)[C@H]2O)[C@@H](C)O)N(C)C1 [LINCOMYCIN] | Not Active
12 | Clc1ccc(C(c2ccccc2Cl)C(Cl)Cl)cc1 (stereo unspecified) [MITOTANE] | Not Active

target: Beta-3 adrenergic receptor (Homo sapiens, UniProt P13945); experiment: DRUGMATRIX: Adrenergic beta3 radioligand binding (ligand: [125I] Cyanopindolol); format: cell membranes, HEK293, Membrane; conditions: hek293; Not Active = under 50% inhibition at 10 µM
Sequence (P13945 whole entry): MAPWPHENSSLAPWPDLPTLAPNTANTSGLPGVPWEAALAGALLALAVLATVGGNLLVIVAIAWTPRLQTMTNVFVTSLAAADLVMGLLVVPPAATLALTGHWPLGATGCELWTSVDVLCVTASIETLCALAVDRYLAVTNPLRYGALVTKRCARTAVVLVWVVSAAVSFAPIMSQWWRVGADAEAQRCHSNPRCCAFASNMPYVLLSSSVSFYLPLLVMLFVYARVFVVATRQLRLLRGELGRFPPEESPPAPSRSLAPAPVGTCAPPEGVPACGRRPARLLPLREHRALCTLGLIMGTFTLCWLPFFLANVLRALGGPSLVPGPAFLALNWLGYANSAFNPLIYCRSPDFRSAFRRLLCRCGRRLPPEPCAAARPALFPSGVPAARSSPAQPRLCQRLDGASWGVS

Row | Compound | IC50
13 | c1ccc2[nH]c(-c3cscn3)nc2c1 [THIABENDAZOLE] | Not Active
14 | C[C@](N)(Cc1ccc(O)cc1)C(=O)O [METYROSINE] | Not Active
15 | CCC[C@@H]1C[C@@H](C(=O)N[C@@H]([C@H]2O[C@H](SC)[C@H](O)[C@@H](O)[C@H]2O)[C@@H](C)O)N(C)C1 [LINCOMYCIN] | Not Active
16 | Clc1ccc(C(c2ccccc2Cl)C(Cl)Cl)cc1 (stereo unspecified) [MITOTANE] | Not Active

target: T3, Calcitonin receptor (Homo sapiens, UniProt P30988); experiment: not given; format: cell membranes, Membrane; conditions: t47d; note: in other assays of this panel Not Active means under 50% inhibition at 10 µM
T3 sequence (P30988 whole entry): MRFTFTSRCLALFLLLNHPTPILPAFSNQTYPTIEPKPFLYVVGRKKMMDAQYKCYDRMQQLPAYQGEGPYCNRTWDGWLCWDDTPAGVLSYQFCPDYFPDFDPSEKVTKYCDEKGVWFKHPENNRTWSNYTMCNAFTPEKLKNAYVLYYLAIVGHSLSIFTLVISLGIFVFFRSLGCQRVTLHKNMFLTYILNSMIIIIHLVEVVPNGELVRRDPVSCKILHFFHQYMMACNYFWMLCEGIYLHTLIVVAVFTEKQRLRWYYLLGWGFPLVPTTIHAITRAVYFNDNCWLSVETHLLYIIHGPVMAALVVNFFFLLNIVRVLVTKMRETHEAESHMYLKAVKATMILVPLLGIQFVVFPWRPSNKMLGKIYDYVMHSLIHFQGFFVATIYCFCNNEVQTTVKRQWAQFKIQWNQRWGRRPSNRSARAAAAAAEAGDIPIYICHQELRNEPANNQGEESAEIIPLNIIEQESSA

Row | Compound | IC50
17 | c1ccc2[nH]c(-c3cscn3)nc2c1 [THIABENDAZOLE] | Not Active
18 | C[C@](N)(Cc1ccc(O)cc1)C(=O)O [METYROSINE] | Not Active
19 | CCC[C@@H]1C[C@@H](C(=O)N[C@@H]([C@H]2O[C@H](SC)[C@H](O)[C@@H](O)[C@H]2O)[C@@H](C)O)N(C)C1 [LINCOMYCIN] | Not Active
20 | Clc1ccc(C(c2ccccc2Cl)C(Cl)Cl)cc1 (stereo unspecified) [MITOTANE] | Not Active

target: Prostaglandin G/H synthase 1 (Homo sapiens, UniProt P23219); experiment: biochemical; format: tissue-based, Platelet; conditions: platelet;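 note: inhibition of COX-1 enzyme activity, with arachidonic acid supplied as substrate; in other assays of this panel Not Active means under 50% inhibition at 10 µM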
Sequence (P23219 whole entry): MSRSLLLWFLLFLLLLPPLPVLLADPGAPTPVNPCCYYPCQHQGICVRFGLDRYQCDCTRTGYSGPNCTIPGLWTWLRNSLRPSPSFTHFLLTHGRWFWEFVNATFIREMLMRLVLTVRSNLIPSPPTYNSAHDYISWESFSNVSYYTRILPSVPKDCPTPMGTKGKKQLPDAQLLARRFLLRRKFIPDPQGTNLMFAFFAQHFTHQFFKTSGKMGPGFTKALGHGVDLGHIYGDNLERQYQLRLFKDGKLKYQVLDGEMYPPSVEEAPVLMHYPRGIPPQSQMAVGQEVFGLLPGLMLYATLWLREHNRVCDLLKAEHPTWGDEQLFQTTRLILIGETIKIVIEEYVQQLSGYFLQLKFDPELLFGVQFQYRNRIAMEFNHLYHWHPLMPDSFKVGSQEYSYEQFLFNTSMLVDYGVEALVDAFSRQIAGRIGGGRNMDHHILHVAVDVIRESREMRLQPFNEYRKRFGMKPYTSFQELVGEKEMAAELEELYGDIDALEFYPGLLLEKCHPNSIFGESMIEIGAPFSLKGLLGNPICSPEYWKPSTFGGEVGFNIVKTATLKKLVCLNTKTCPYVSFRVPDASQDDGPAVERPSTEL

Row | Compound | IC50
21 | c1ccc2[nH]c(-c3cscn3)nc2c1 [THIABENDAZOLE] | Not Active
22 | C[C@](N)(Cc1ccc(O)cc1)C(=O)O [METYROSINE] | Not Active
23 | CCC[C@@H]1C[C@@H](C(=O)N[C@@H]([C@H]2O[C@H](SC)[C@H](O)[C@@H](O)[C@H]2O)[C@@H](C)O)N(C)C1 [LINCOMYCIN] | Not Active
24 | Clc1ccc(C(c2ccccc2Cl)C(Cl)Cl)cc1 (stereo unspecified) [MITOTANE] | Not Active

target: T4, D(4) dopamine receptor (Homo sapiens, UniProt P21917); experiment: DRUGMATRIX: Dopamine D4.2 radioligand binding (ligand: [3H] Spiperone); format: cell membranes, CHO-K1, Membrane; conditions: cho-k1; Not Active = under 50% inhibition at 10 µM
T4 sequence (P21917 whole entry): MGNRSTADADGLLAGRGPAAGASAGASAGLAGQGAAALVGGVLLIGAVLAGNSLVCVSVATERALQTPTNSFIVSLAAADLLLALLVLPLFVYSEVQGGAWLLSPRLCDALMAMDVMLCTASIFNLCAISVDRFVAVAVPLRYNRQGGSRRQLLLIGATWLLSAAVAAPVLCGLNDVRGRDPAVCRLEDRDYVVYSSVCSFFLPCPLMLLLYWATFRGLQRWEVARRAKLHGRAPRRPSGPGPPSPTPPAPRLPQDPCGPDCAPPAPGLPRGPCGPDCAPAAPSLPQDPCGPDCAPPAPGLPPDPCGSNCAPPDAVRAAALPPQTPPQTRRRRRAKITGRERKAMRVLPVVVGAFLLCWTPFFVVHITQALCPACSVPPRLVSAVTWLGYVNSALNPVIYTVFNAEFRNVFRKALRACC

Row | Compound | IC50
25 | c1ccc2[nH]c(-c3cscn3)nc2c1 [THIABENDAZOLE] | Not Active
26 | C[C@](N)(Cc1ccc(O)cc1)C(=O)O [METYROSINE] | Not Active
27 | CCC[C@@H]1C[C@@H](C(=O)N[C@@H]([C@H]2O[C@H](SC)[C@H](O)[C@@H](O)[C@H]2O)[C@@H](C)O)N(C)C1 [LINCOMYCIN] | Not Active
28 | Clc1ccc(C(c2ccccc2Cl)C(Cl)Cl)cc1 (stereo unspecified) [MITOTANE] | Not Active

target: Glycine receptor (Rattus norvegicus, UniProt P22771+P24524+P07727+P20781); experiment: not given; format: cell membranes, Wistar, Spinal cord, Membrane; conditions: not given; note: in other assays of this panel Not Active means under 50% inhibition at 10 µM

Row | Compound | IC50
29 | c1ccc2[nH]c(-c3cscn3)nc2c1 [THIABENDAZOLE] | Not Active
30 | C[C@](N)(Cc1ccc(O)cc1)C(=O)O [METYROSINE] | Not Active
31 | CCC[C@@H]1C[C@@H](C(=O)N[C@@H]([C@H]2O[C@H](SC)[C@H](O)[C@@H](O)[C@H]2O)[C@@H](C)O)N(C)C1 [LINCOMYCIN] | Not Active
32 | Clc1ccc(C(c2ccccc2Cl)C(Cl)Cl)cc1 (stereo unspecified) [MITOTANE] | Not Active

test system: not listed separately; experiment: DRUGMATRIX: Phosphodiesterase PDE4 enzyme inhibition (substrate: [3H]cAMP + cAMP); conditions: u-937; Not Active = under 50% inhibition at 10 µM

Row | Compound | IC50 | Ki
33 | c1ccc2[nH]c(-c3cscn3)nc2c1 [THIABENDAZOLE] | Not Active | Not Active
34 | C[C@](N)(Cc1ccc(O)cc1)C(=O)O [METYROSINE] | Not Active | Not Active
35 | CCC[C@@H]1C[C@@H](C(=O)N[C@@H]([C@H]2O[C@H](SC)[C@H](O)[C@@H](O)[C@H]2O)[C@@H](C)O)N(C)C1 [LINCOMYCIN] | Not Active | Not Active
36 | Clc1ccc(C(c2ccccc2Cl)C(Cl)Cl)cc1 (stereo unspecified) [MITOTANE] | Not Active | Not Active

target: T5, Cathepsin G (Homo sapiens, UniProt P08311); experiment: not given; format: tissue-based; conditions: neutrophil
T5 sequence (P08311 whole entry): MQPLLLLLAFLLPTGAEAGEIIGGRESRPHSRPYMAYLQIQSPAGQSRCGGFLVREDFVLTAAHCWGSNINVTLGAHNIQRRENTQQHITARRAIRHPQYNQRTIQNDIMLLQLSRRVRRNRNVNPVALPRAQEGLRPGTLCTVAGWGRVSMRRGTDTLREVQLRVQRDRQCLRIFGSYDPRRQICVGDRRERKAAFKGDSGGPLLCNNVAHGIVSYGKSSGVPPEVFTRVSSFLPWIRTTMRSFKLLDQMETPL

Row | Compound | IC50
37 | c1ccc2[nH]c(-c3cscn3)nc2c1 [THIABENDAZOLE] | Not Active
38 | C[C@](N)(Cc1ccc(O)cc1)C(=O)O [METYROSINE] | Not Active
39 | CCC[C@@H]1C[C@@H](C(=O)N[C@@H]([C@H]2O[C@H](SC)[C@H](O)[C@@H](O)[C@H]2O)[C@@H](C)O)N(C)C1 [LINCOMYCIN] | Not Active
40 | Clc1ccc(C(c2ccccc2Cl)C(Cl)Cl)cc1 (stereo unspecified) [MITOTANE] | Not Active

target: Protein kinase C alpha type (Homo sapiens, UniProt P17252); experiment: not given; format: cell-based; conditions: sf9

Row | Compound | IC50
41 | c1ccc2[nH]c(-c3cscn3)nc2c1 [THIABENDAZOLE] | Not Active
42 | C[C@](N)(Cc1ccc(O)cc1)C(=O)O [METYROSINE] | Not Active
43 | CCC[C@@H]1C[C@@H](C(=O)N[C@@H]([C@H]2O[C@H](SC)[C@H](O)[C@@H](O)[C@H]2O)[C@@H](C)O)N(C)C1 [LINCOMYCIN] | Not Active
44 | Clc1ccc(C(c2ccccc2Cl)C(Cl)Cl)cc1 (stereo unspecified) [MITOTANE] | Not Active

target: Epidermal growth factor receptor (Homo sapiens, UniProt P00533); experiment: DRUGMATRIX: Protein Tyrosine Kinase, EGF Receptor enzyme inhibition (substrate: Poly(Glu:Tyr)); format: cell-based, Insect cells; conditions: insect cells; Not Active = under 50% inhibition at 10 µM
Sequence (P00533 whole entry): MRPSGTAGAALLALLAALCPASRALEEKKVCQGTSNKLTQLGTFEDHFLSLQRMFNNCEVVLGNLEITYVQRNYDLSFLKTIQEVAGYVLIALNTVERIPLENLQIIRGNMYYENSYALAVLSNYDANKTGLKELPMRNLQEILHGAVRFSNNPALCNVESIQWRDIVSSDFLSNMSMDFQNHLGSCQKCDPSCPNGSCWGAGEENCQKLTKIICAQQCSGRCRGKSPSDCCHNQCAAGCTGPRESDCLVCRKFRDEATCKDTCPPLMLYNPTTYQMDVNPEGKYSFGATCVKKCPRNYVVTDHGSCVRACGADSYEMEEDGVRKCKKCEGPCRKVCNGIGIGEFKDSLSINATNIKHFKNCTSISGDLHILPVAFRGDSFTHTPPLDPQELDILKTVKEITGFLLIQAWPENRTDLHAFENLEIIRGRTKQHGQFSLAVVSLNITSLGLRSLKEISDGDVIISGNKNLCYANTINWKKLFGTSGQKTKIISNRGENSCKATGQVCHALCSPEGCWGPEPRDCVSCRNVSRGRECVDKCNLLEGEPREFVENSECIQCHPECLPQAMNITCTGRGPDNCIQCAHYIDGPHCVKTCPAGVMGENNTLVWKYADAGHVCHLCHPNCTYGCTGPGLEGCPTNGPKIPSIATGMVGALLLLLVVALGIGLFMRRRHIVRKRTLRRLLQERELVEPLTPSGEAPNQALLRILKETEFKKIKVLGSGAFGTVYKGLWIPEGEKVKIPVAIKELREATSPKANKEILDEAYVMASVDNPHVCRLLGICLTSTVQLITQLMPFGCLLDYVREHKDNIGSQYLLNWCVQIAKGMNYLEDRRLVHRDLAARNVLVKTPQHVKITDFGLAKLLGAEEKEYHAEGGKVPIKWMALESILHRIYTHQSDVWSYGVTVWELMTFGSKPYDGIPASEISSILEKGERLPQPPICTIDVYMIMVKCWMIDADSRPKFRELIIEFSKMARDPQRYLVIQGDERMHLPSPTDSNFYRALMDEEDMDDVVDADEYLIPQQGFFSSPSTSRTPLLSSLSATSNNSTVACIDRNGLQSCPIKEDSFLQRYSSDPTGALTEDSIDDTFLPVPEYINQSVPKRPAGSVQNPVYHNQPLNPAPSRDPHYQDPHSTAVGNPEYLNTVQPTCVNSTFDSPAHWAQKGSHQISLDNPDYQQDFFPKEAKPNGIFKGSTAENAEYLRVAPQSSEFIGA

Row | Compound | IC50
45 | c1ccc2[nH]c(-c3cscn3)nc2c1 [THIABENDAZOLE] | Not Active
46 | C[C@](N)(Cc1ccc(O)cc1)C(=O)O [METYROSINE] | Not Active
47 | CCC[C@@H]1C[C@@H](C(=O)N[C@@H]([C@H]2O[C@H](SC)[C@H](O)[C@@H](O)[C@H]2O)[C@@H](C)O)N(C)C1 [LINCOMYCIN] | Not Active
48 | Clc1ccc(C(c2ccccc2Cl)C(Cl)Cl)cc1 (stereo unspecified) [MITOTANE] | Not Active

From ChEMBL document CHEMBL1909046, “DrugMatrix in vitro pharmacology data”
